{"source": "patent US6828450B2", "about": "“Triptycene analogs” (Kansas State University Research Foundation, priority 2000, dated 2004)", "key": {"[1]": {"tested_on": "L1210 cells", "assay": "cells", "conditions": "for inhibitory effect on L1210 cell viability: 256 nM, 4 days; for cytotoxicity at 0.041 µM: read-out: % inhibition of L1210 cell viability", "protocol": "(§1) FIG. 1. […] For tumor cell growth and viability, L1210 cells were respectively seeded in triplicate at initial densities of 1×10^4 and 1.11×10^4 cells/0.5 ml/well in RPMI 1640 medium containing 7.5% FCS and penicillin (100 IU/ml)-streptomycin (100 μg/ml), and grown for 4 days in the presence or absence (control) of 256 nM concentrations of the indicated compounds in a humidified incubator at 37° C. with 5% CO2 in air. Cell density was monitored using a Coulter counter. […] The ability of viable cells/0.5 ml to bioreduce 0.1 ml of MTS:PMS (20:1) reagent over a 3-h incubation period at 37° C. was assessed by measuring the absorbamce of the water-soluble formazan products at A490 nm.\nFIG. 4. […] Cells were seeded in triplicate at initial densities of 100,000 or 11,100 cells/0.5 ml/well and respectively incubated for 2 or 4 days in the presence or absence (control) of the indicated concentrations of drugs, which are plotted on a logarithmic scale. The ability of viable cells/0.5 ml to bioreduce 0.1 ml of MTS:PMS (20:1) reagent over a 3-h incubation period was assessed as described in FIG. 1.\n(§2) TT0 was purchased from Aldrich (Milwaukee, Wis.). All solutions of synthetic TTs and tricyclic pyrone H10, vincristine (VCR; a gift from Lilly Researeh Laboratories, Indianapolis, Ind.) and camptothecin (CPT; from Sigma Chemical Co., St Louis, Mo.) were dissolved and diluted in dimethyl sulfoxide (DMSO), whereas daunomycin (DAU) (from Sigma) solutions were prepared in 0.1 M potassium phosphate buffer, pH 7.4, containing 0.9% NaCl. Suspension cultures of murine L1210 lymphocytic leukemia cells (American Type Culture Collection, Rockville, Md.) were maintained in continuous exponential growth by twice-a-week passage in RPMI 1640 medium supplemented with 7.5% fortified bovine calf serum (FCS; HyClone Laboratories, Logan, Utah) and penicillin (100 IU/ml)-streptomycin (100 μg/ml), and incubated in the presence or absence of drugs at 37° C. in a humidified atmosphere containing 5% CO2. […] Control cells incubated in the absence of drugs were similarly treated with vehicle only and, in every experiment, all incubates received the same volume of solvent. For drug removal, incubates were spun at 200×g for 10 min, drug-containing supernatants were discarded, and intact cells were washed thrice with 1 ml of the above RPMI 1640 culture medium and resuspended in 0.5 ml of fresh medium for further incubation.\nL1210, HL-60-S, HL60-RV and HL-60-R8 cells suspended in FCS-containing RPMI 1640 medium were grown in 48-well Costar cell culture plates for up to 4 days in the presence or absence of drugs to evaluate drug cytotoxicity."}, "[2]": {"tested_on": "L1210 cells", "assay": "L1210 tumor cell proliferation assay (Coulter counter)", "conditions": "for concentration giving almost total (maximal) inhibition of proliferation and viability: growth and viability; for IC50: read-out: IC50, inhibition of L1210 cell proliferation; for inhibition at 0.041 µM: read-out: % inhibition of L1210 cell proliferation", "protocol": "as §1\nFIG. 3. […] The protocol of the experiment was identical to that of FIG. 1. […] Drug concentrations are plotted on a logarithmic scale.\nas §2\nFor tumor cell growth, L1210 cells were resuspended in fresh FCS-containing RPMI 1640 medium, plated at an initial density of 1×10^4 cells/0.5 ml, and incubated in 48-well Costar cell culture plates (Costar, Cambridge, Mass.). Except when otherwise specified, cells were grown for 4 days in the presence or absence of drugs and their density was monitored every 24 h using a Coulter counter (Coulter Electronics, Luton Beds, UK)."}, "[3]": {"tested_on": "L1210 cells", "assay": "DNA synthesis (3H-thymidine incorporation) in L1210 cells", "format": "cell-based, murine", "conditions": "for concentration at which the drug becomes effective against DNA synthesis: 2-h treatment", "protocol": "FIG. 9. […] Cells (1.14×10^6/0.5 ml of RPMI 1640 medium) were incubated at 37° C. for 90 min in the presence or absence (control) of the indicated concentrations of drugs, which are plotted on a logarithmic scale, and then pulse-labeled for an additional 30 min to determine the rate of ^3H-thymidine incorporation into DNA.\nFIG. 11. […] The cellular uptake of ^3H-thymidine (striped) and the rate of ^3H-thymidine incorporation into DNA (open) were determined in cells (1.38×10^6/0.5 ml of RPMI 1640 medium) respectively preincubated at 37° C. for 15 or 90 min in the presence or absence (control) of 7 μM concentrations of the indicated compounds. For the cellular transport of nucleosides, preincubated cells were then exposed to 1 μCi of ^3H-thymidine for 30 sec at 37° C. […] For DNA synthesis, preincubated cells were then pulse-labeled with 1 μCi of ^3H-thymidine for an additional 30 min at 37° C.\nFIG. 12. […] The cellular uptake of ^3H-thymidine (striped) and the rate of ^3H-thymidine incorporation into DNA (open) were determined in cells (1.64×10^6/0.5 ml of RPMI 1640 medium) respectively preincubated at 37° C. for 15 or 60 min in the presence or absence (control) of 10 and 25 μM TT2 or 25 μM H10. […] After preincubation, vehicle-treated controls were similarly spun and washed. For the cellular transport of nucleosides, preincubated cells were then exposed, in the presence (+) or absence (−) of TT2 or H10, to 1 μCi of ^3H-thymidine for 30 sec at 37° C. […] For DNA synthesis, preincubated cells were then pulse-labeled with 1 μCi of ^3H-thymidine for an additional 30 min at 37° C. in the presence (+) or absence (−) of TT2 or H10. […] Bars: means±SD (n=3).\nFor nucleic acid and protein syntheses, L1210 cells were resuspended in fresh FCS-containing RPMI 1640 medium at a density of about 1.1-1.6×10^6 cells/0.5 ml. To estimate the rate of DNA synthesis, HL-60-S, HL-60-RV and HL-60-R8 cells were resuspended in fresh FCS-containing RPMI 1640 medium at a density of 5×10^5 cells/0.5 ml."}, "[4]": {"conditions": "read-out: IC50 (concentration inhibiting by 50% the viability of L1210 leukemic cells), day 4, Table 2 series"}}, "note": "Values joined by “and” are separate entries in the source; they are usually repeats but may differ in a detail not shown here. Equal values may be shown once. Read-outs that look alike come from different tables or passages of the source.", "data": [{"molecule": "COC1=CC(=O)C2=C(C1=O)C1C3=C(C(=O)C=CC3=O)C2c2ccccc21", "note": "(stereo not drawn) [TT2, 2-Methoxy-9,10-dihydro-9,10-[1′,2′]benzenoanthracene-1,4,5,8-tetraone]", "values": [{"measurement": "IC50", "setting": "[1]; [4]", "value": 270, "unit": "nM"}, {"measurement": "IC50", "setting": "[1]; read-out: IC50, inhibition of L1210 cell viability, day 2", "value": 250, "unit": "nM"}, {"measurement": "IC50", "setting": "[1]; read-out: IC50, inhibition of L1210 cell viability, day 4", "value": 100, "unit": "nM"}, {"measurement": "times DAU is more cytostatic/cytotoxic than TT2", "setting": "[2]", "value": "3.5-6 times"}, {"measurement": "% inhibition of L1210 cell proliferation", "setting": "[2]; 256 nM TT2, day 2", "value": 44, "unit": "%"}, {"measurement": "% inhibition of L1210 cell growth (cytostatic)", "setting": "[2]; 256 nM, 4 days, 0.256 µM", "value": 68, "unit": "%"}, {"measurement": "concentration giving almost total (maximal) inhibition of proliferation and viability", "setting": "[2]; day 4", "value": "≥ 640", "unit": "nM"}, {"measurement": "IC50", "setting": "[2]; day 2", "value": 300, "unit": "nM"}, {"measurement": "IC50", "setting": "[2]; day 4", "value": 150, "unit": "nM"}, {"measurement": "% inhibition of DNA synthesis", "setting": "[3]; 10 μM TT2, 60-min preincubation", "value": 69, "unit": "%"}, {"measurement": "effect on DNA synthesis", "setting": "[3]; 25 μM TT2, 2-h treatment", "value": "totally inhibited"}, {"measurement": "% inhibition of DNA synthesis", "setting": "[3]; 25 μM TT2, 60-min preincubation", "value": 97, "unit": "%"}, {"measurement": "concentration at which the drug becomes effective against DNA synthesis", "setting": "[3]", "value": "greater than 1.6 μM"}, {"measurement": "reversibility of the inhibition of DNA synthesis upon drug removal", "setting": "[3]; 10 and 25 μM TT2 or 25 μM H10, 60-min preincubation", "value": "irreversible"}, {"measurement": "IC50", "setting": "[3]; 90 min drug + 30 min pulse-labeling (2 h), read-out: IC50, inhibition of DNA synthesis in L1210 cells", "value": "6000 nM and ~6000 nM"}, {"measurement": "times TT2 inhibits DNA, RNA and protein syntheses less effectively than DAU", "setting": "[3]; L1210, after 2-3 h, IC50 values compared", "value": "3-6 times"}]}, {"molecule": "COC1=C(Br)C(=O)C2=C(C1=O)C1C3=C(C(=O)C=C(N(C)C)C3=O)C2c2ccccc21", "note": "(stereo not drawn) [TT16, 2-Bromo-3-methoxy-6-(dimethylamino)-9,10-dihydro-9,10-[1′,2′]benzenoanthracene-1,4,5,8-tetraone]", "values": [{"measurement": "IC50", "setting": "[1]; [4]", "value": 300, "unit": "nM"}, {"measurement": "potency on DNA synthesis compared with TT2", "setting": "[3]; FIG. 13", "value": "as potent as TT2"}]}, {"molecule": "COC(=O)C1=C(C(=O)OC)C[C@H]2[C@@H](C1)[C@@H](O)C1=C(C3C4=C(C1c1ccccc13)[C@@H](O)[C@H]1CC(C(=O)OC)=C(C(=O)OC)C[C@H]1[C@H]4O)[C@H]2O", "note": "[TT12, (4aS*,5S*,7R*,12S*,14R*,7aR*,11aS*,14aR*)-Tetramethyl 1,4,4a,5,6,7,7a,8,11,11a,12,13,14,14a-tetradecahydro-5,7,12,14-tetrahydroxy-6,13-[1′,2′]benzenopentacene-2,3,9,10-tetracarboxylate]", "values": [{"measurement": "inhibitory effect on L1210 cell viability", "setting": "[1]", "value": "inactive"}, {"measurement": "inhibitory effect on L1210 cell growth", "setting": "[2]; 256 nM, 4 days", "value": "inactive"}, {"measurement": "effect on DNA synthesis", "setting": "[3]; 7 μM, 2 h", "value": "alter neither"}]}, {"molecule": "COC(=O)C1=C(C(=O)OC)C[C@H]2C(=O)C3=C(C(=O)[C@H]2C1)C1C2=C(C(=O)[C@H]4CC(C(=O)OC)=C(C(=O)OC)C[C@H]4C2=O)C3c2ccccc21", "note": "[TT4, (4aS*,7aR*,11aS*,14aR*)-Tetramethyl 1,4,4a,5,6,7,7a,8,11,11a,12,13,14,14a-tetradecahydro-5,7,12,14-tetraoxo-6,13-[1′,2′]benzenopentacene-2,3,9,10-tetracarboxylate]", "values": [{"measurement": "inhibitory effect on L1210 cell viability", "setting": "[1]", "value": "inactive"}, {"measurement": "inhibitory effect on L1210 cell growth", "setting": "[2]; 256 nM, 4 days", "value": "inactive"}, {"measurement": "effect on DNA synthesis", "setting": "[3]; 7 μM, 2 h", "value": "alter neither"}]}, {"molecule": "COc1cccc2c1C(=O)c1c(O)c3c(c(O)c1C2=O)C[C@@](O)(C(C)=O)C[C@@H]3O[C@H]1C[C@H](N)[C@H](O)[C@H](C)O1", "note": "[DAU, daunomycin, reference compound]", "values": [{"measurement": "times DAU is more cytotoxic than TT2", "setting": "[1]", "value": "about 3.5 times"}, {"measurement": "cytotoxicity at 0.041 µM", "setting": "[1]; Mus musculus, L1210, 48 h", "value": 32, "unit": "%"}, {"measurement": "IC50", "setting": "[1]; Mus musculus, L1210, 48 h, read-out: IC50, inhibition of L1210 cell viability", "value": 70, "unit": "nM"}, {"measurement": "cytotoxicity at 0.041 µM", "setting": "[1]; Mus musculus, L1210, 96 h", "value": 65, "unit": "%"}, {"measurement": "IC50", "setting": "[1]; Mus musculus, L1210, 96 h, read-out: IC50 (concentration inhibiting by 50% the viability of L1210 leukemic cells)", "value": 41, "unit": "nM"}, {"measurement": "IC50", "setting": "[1]; Mus musculus, L1210, 96 h, read-out: IC50, inhibition of L1210 cell viability", "value": 30, "unit": "nM"}, {"measurement": "times DAU is more cytostatic than TT2", "setting": "[2]; L1210, from IC50 values", "value": "about 6 times"}, {"measurement": "times DAU is more cytostatic/cytotoxic than TT2", "setting": "[2]; L1210, growth and viability, 4 days", "value": "3.5-6 times"}, {"measurement": "inhibition at 0.041 µM", "setting": "[2]; Mus musculus, L1210, 48 h", "value": 42, "unit": "%"}, {"measurement": "IC50", "setting": "[2]; Mus musculus, L1210, 48 h", "value": 50, "unit": "nM"}, {"measurement": "inhibition at 0.041 µM", "setting": "[2]; Mus musculus, L1210, 96 h", "value": 77, "unit": "%"}, {"measurement": "IC50", "setting": "[2]; Mus musculus, L1210, 96 h", "value": 25, "unit": "nM"}, {"measurement": "concentration giving almost total (maximal) inhibition of proliferation and viability", "setting": "[2]; day 4", "value": 102, "unit": "nM"}, {"measurement": "concentration at which the drug becomes effective against DNA synthesis", "setting": "[3]", "value": 0.256, "unit": "µM"}, {"measurement": "times DAU prevents DNA synthesis more effectively than TT2", "setting": "[3]; L1210, from IC50 values", "value": "about 6 times"}]}]}
